In ChEMBL document CHEMBL1147379, “Antineoplastic agents, 256. Cell growth inhibitory isocarbostyrils from Hymenocallis” (1993):
Values after ≈ are worked out from the molar mass of the structure shown. Active and inactive are the calls of the source. The rule behind the calls is not given here.

Key:
[1] = system: P388; assay: Growth inhibition of mouse P388 cells; type: functional; settings: read-out: ED50 (the source's name)
[2] = system: M5076; assay: Growth inhibition of mouse M5076 cells; type: functional, cell-based

SMILES | EC50 [1] | Activity [2]
O=C1N[C@H]2[C@H](O)[C@H](O)[C@@H](O)C[C@@H]2c2cc3c(c(O)c21)OCO3 | 0.02 µg/mL (≈ 0.0647 µM) | 
O=C1N[C@H]2[C@H](O)[C@H](O)[C@@H](O)[C@H](O)[C@@H]2c2cc3c(c(O)c21)OCO3 [PANCRATISTATIN] | 0.01 µg/mL (≈ 0.0307 µM) | Active
